Data set [1] can be described thus: Appearance index of catheter and swelling medium after sterilization. Format: physicochemical. The conditions noted are these: 0=totally unacceptable, 5=perfect. From the text: The appearance index was a weighted average of the subjective acceptability after sterilization of catheters packed in one single compartment with catheter and swelling medium (on a scale from 0 to 5: 0=totally unacceptable, e.g. by strong color or major precipitation; 5=perfect, e.g. no coloration, no precipitate) of the hydrophilic catheter (weighted 60%) and the swelling medium (weighted 40%).

In the next data set the test system is seven bacteria. Description: Antibacterial effect / antibacterial index of silver compounds. The data set is classed as cell-based. Conditions: for Antibacterial index: index between 0 and 5.05; for antibacterial effect: pH 5.5, 7 and 8.5, 160 mM NaCl, 6% PEG 2000, excess undissolved salt (precipitate) present. The procedure: The solutions further contained 160 mM NaCl and 6% PEG 2000, and all solutions were sterilized with 50 kGy β- or γ-irradiation. β-Irradiation generally gave a better antibacterial effect and a smaller degree of coloration of the products than γ-irradiation, so β-irradiation was the preferred sterilization method. The silver compounds only worked when excess undissolved salt was allowed in the packaging, that is, they had no antibacterial effect when they were decanted from their precipitate.
The antibacterial effect of each compound was scored on a scale from 0 (no effect) to 3 (excellent effect) for each of the seven bacteria. The antibacterial index was defined as 5/12 multiplied by the sum of the square roots of the scores of each of the seven bacteria. Thus, the antibacterial index was a rational number between 0 and 5.05.

The format of data set [2] is physicochemical. How it is done: When the results were analyzed and further tests were carried out to confirm the results, it appeared that the effects might be third-order interactions or higher. That is, the effects came from mixtures of 3, 5, 7 or any other odd number of compounds but apparently not from main effects or 2-factor interactions. Thus, a large synergistic action between the compounds appeared to be present.

The conditions of data set [3]: for Degradation rate of 1% H2O2: Rate constant (k) (%/day) / Degradation rate of 1% H2O2: log k (%/day): 500 µg/mL DETAPMP, 10 mM citrate, 0.7% NaCl, pH 4. The text has this:
The pH-value of the solution was adjusted to pH 4 with 4 M NaOH and 1 M HCl.
Seven swelling media were produced.
The irradiation dose was 2*26 kGy.
The stick-pack with “peel” was a laminated material consisting of PETP (12 μm), aluminium (9 μm) and polyethylene peel (polyethylene+10% polybutylene) (70 μm). The stick-packs were made out of a stamped area of 13×35 mm that was welded in the longitudinal direction by 1×3 units on a welder. It was welded by 2×2.2 units across in one end of the stick-pack, and in the other end by 4.0 bar, 130° C. and 3.5 s (breakable seal).

Data set [4] in a line: Various stabilizers: degradation of H2O2 at pH 4, 5.5 and 7. The conditions noted are these: with stabilizer, 25 mM citric acid, approx. 1% H2O2. How it is done:
Therefore the investigation of the influence of the pH-value on the stability in our system was included in the study.
24 different kinds of swelling media containing different stabilizers (one without stabilizer) and 3 different pH-values (pH 4, 5.5 and 7) were prepared. […] The concentration of sodium chloride in each of these three swelling media was 0.7% (w/w). Sodium chloride was tested because it could be used as an osmolality increasing agent. […] Two different kinds of material for the stick-pack were used, one with “peel” and one with “non-peel”. […] The irradiation dose was 2*26 kGy.
The stick-pack with “peel” was a laminated material consisting of PETP (12 μm), aluminium (9 μm) and polyethylene peel (polyethylene+10% polybutylene) (70 μm). […] The stick-packs were made out of a stamped area of 13×35 mm that was welded in the longitudinal direction by 1×3 units on a welder. It was welded by 2×2.2 units across in one end of the stick-pack, and in the other end by 4.0 bar, 130° C. and 3.5 s (breakable seal).
The stick-packs were stored for stability testing at 23° C. and 40° C. Samples were taken out after irradiation and after 2 and 4 weeks at 40° C. and 8 and 16 weeks at 23° C.

For a further data set, the system named is Providencia Stuartii. Nature of the data set: Coated catheter on inoculated agar plate, inhibition zone. Format: cell-based. Conditions: 1-5 g/L in 50 mM citrate (pH 5.5), 160 mM NaCl and 6% PEG 2000. How it is done:
(§1) A series of antibacterial agents (See Table 12.1) were swelled into a hydrophilic coating on urinary catheters. The catheters were stored about 0, 3, 6 and 12 weeks at 25° C., 40° C., and 60° C. Agar plates were inoculated with various bacterial strains clinically isolated from infected human urine, and added the coated catheter on top of the surface of the agar. The agar plates were incubated for 18 hours at 37° C., and visually tested for presence or absence of an inhibition zone.
(§2) Catheter sections with a hydrophilic coating were swelled with a solution of the anti-microbial agents and were placed on agar plates inoculated with bacteria (clinical isolates, − and + denotes […], respectively): Proteus mirabilis (−), Pseudomonas aeruginosa (−), E. coli (−), Providencia Stuartii (−), Staphylococcus aureus (+), Enterococcus faecalis (+) and Klebsielia (−).
(§3) A highly fractionated factorial design (2^15-10IV-design) was constructed by Design Expert software (version 6.0.6) and used to screen 32 of the 2^15=32768 possible combinations, where each compound was either absent or present in a relevant concentration. […] All samples were β-sterilized with a dose of 50 kGy. The constituents and concentrations of the 32 solutions are described in Table 12.1:
(§4) Many of the 32 mixtures had powerful action against several of the 7 bacteria (0=no effect; 3=excellent effect), see Table 12.2 (sorted by decreasing antibacterial effect).

In another data set the test system is Staphylococcus aureus. The data set is described as above. The data set is classed as cell-based. The conditions noted are these: 1-5 g/L in 50 mM citrate (pH 5.5), 160 mM NaCl and 6% PEG 2000. The procedure: as §1, §2, §3, §4
For the next data set, the system named is Proteus mirabilis. Described as above. Format: cell-based. The conditions noted are these: 1-5 g/L in 50 mM citrate (pH 5.5), 160 mM NaCl and 6% PEG 2000. The procedure:
as §1, §2, §3, §4

The subject of another data set is Enterococcus faecalis. Described as above. Format: cell-based. Conditions: 1-5 g/L in 50 mM citrate (pH 5.5), 160 mM NaCl and 6% PEG 2000. The procedure: as §1, §2, §3, §4
The next data set has as its system Klebsiella. Described as above. The data set is classed as cell-based. The conditions noted are these: 1-5 g/L in 50 mM citrate (pH 5.5), 160 mM NaCl and 6% PEG 2000. The procedure: as §1, §2, §3, §4
The test system of another data set is Pseudomonas aeruginosa. Described as above. Conditions: 1-5 g/L in 50 mM citrate (pH 5.5), 160 mM NaCl and 6% PEG 2000. Format: cell-based. The procedure:
as §1, §2, §3, §4

The next data set deals with E. coli. Described as above. Format: cell-based. Conditions: 1-5 g/L in 50 mM citrate (pH 5.5), 160 mM NaCl and 6% PEG 2000. How it is done:
as §1, §2, §3, §4

Where two headings read alike, the source gives them in different places.

For the compound `CC1(C)NC(=O)[N-]C1=O.[Ag+]` [5,5-DMH, silver 5,5-dimethylhydantoinate], the Appearance index in data set [1] (pH 5.5, 0.01% H2O2 added) stood at 5; in data set [1] (pH 5.5, no H2O2 added), 2.8; in [1] (pH 7, no H2O2 added), 3.4; in [1] (pH 8.5, no H2O2 added), 2.2. For the same compound, the Antibacterial index came out at 1.4 in the data set with seven bacteria (pH 5.5, 0.01% H2O2 added); 1.8 in the data set with seven bacteria (pH 5.5, no H2O2 added); 3.4 in the data set on seven bacteria (pH 7, no H2O2 added); 1.7 in the data set with seven bacteria (pH 8.5, no H2O2 added). Besides, the antibacterial effect result in the data set with seven bacteria was “moderate to excellent”.

Take `[H]/N=C(\N/C(=N/[H])NCCCCCCNC(=N)NC(=N)Nc1ccc(Cl)cc1)Nc1ccc(Cl)cc1` [Chlorhexidine, chlorhexidine digluconate]: in data set [2], the solubility result is given as “sparingly soluble”.

Regarding `O=P(O)(O)CN(CCN(CP(=O)(O)O)CP(=O)(O)O)CCN(CP(=O)(O)O)CP(=O)(O)O` [DETAPMP, Diethylenetriaminepenta(methylenephosphonic)acid], the “Concentration of H2O2 (%) after storage at 40° C.” value (shortened to “Concentration of H2O2 (%)”) in data set [3] (50 mg/L DETAPMP, 0 days) is reported as 0.92%; in [3] (50 mg/L DETAPMP, 14 days), 0.89%; in data set [3] (50 mg/L DETAPMP, 25 days) it was 0.89%; in data set [3] (100 mg/L DETAPMP, 0 days), 0.91%; in data set [3] (100 mg/L DETAPMP, 14 days) it was 0.89%; in [3] (100 mg/L DETAPMP, 25 days), 0.88%. Also, the “Concentration of H2O2 (%)” value is listed as 0.91% in data set [3] (150 mg/L DETAPMP, 0 days); 0.90% in data set [3] (150 mg/L DETAPMP, 14 days); 0.89% in [3] (150 mg/L DETAPMP, 25 days); 0.91% in data set [3] (200 mg/L DETAPMP, 0 days); 0.89% in data set [3] (200 mg/L DETAPMP, 14 days); 0.89% in [3] (200 mg/L DETAPMP, 25 days). In addition, the “Concentration of H2O2 (%)” value in data set [3] (250 mg/L DETAPMP, 0 days) amounted to 0.90%; in [3] (250 mg/L DETAPMP, 14 days) it was 0.89%; in data set [3] (250 mg/L DETAPMP, 25 days) it was 0.89%; in data set [3] (350 mg/L DETAPMP, 0 days), 0.91%; in data set [3] (350 mg/L DETAPMP, 14 days), 0.89%; in data set [3] (350 mg/L DETAPMP, 25 days), 0.89%. Also, the “Concentration of H2O2 (%)” value came to 0.91% in data set [3] (500 mg/L DETAPMP, 0 days); 0.89% in data set [3] (500 mg/L DETAPMP, 14 days); 0.89% in data set [3] (500 mg/L DETAPMP, 25 days). For the same compound, the “Degradation rate of 1% H2O2: Rate constant (k) (%/day)” value in [3] (40° C.) is 0.0932 %/day; in [3] (50° C.), 0.1722 %/day; in [3] (60° C.) it was 0.3691 %/day. Moreover, the “Degradation rate of 1% H2O2: log k (%/day)” value is given as −1.031 %/day in data set [3] (40° C.), −0.764 %/day in [3] (50° C.) and −0.433 %/day in data set [3] (60° C.). Moreover, in data set [3] (Arrhenius plot 40-60° C., DETAPMP at pH 4 and 10 mM citrate), the “activation energy for the degradation of H2O2” value is reported as 59.6 kJ/mol. Moreover, the “Q10 of H2O2 degradation rate” value in data set [3] (DETAPMP at pH 4 and 10 mM citrate) is given as “≈ 2”.

On to `CC(O)(P(=O)(O)O)P(=O)(O)O` [HEDP, 1-Hydroxyethane-1,1 diphosphonic acid], for which the “calculated amount of degraded H2O2 after 2 years of storage at 23° C.” value was 65.4% in data set [4] (pH 4), 150.0% in [4] (pH 5.5) and 351.1% in data set [4] (pH 7).

Take `O=C1CNC(=O)[N-]1.[Ag+]` [Hydantoinate, silver hydantoinate]: the Appearance index in data set [1] (pH 5.5, 0.01% H2O2 added) came to 3.6; in data set [1] (pH 5.5, no H2O2 added), 4; in data set [1] (pH 7, no H2O2 added), 3.4; in data set [1] (pH 8.5, no H2O2 added) it was 2.8. Besides, the Antibacterial index in the data set on seven bacteria (pH 5.5, 0.01% H2O2 added) is 2.3; in the data set on seven bacteria (pH 5.5, no H2O2 added), 2.7; in the data set on seven bacteria (pH 7, no H2O2 added), 3.3; in the data set on seven bacteria (pH 8.5, no H2O2 added), 3.2. For the same compound, in the data set on seven bacteria, the antibacterial effect result is reported as “moderate to excellent”.

In the case of `[Cl][Ag]` [silver chloride], the solubility result in data set [2] is reported as “sparingly soluble”.

In the case of benzalkonium chloride, in the data set with Providencia Stuartii, the “antibacterial effect on P. stuartii” value was “moderate to high”. Besides, in the data set on Staphylococcus aureus, the “antibacterial effect on S. aureus” value is “moderate to high”. In the data set with Proteus mirabilis, the “antibacterial effect on P. mirabilis” value is “not”. For the same compound, the “antibacterial effect on E. faecalis” value with Enterococcus faecalis was “moderate to high”. Moreover, in the data set with Klebsiella, the “antibacterial effect on Klebsiella” value is reported as “moderate to high”. Besides, the “antibacterial effect on P. aeruginosa” value with Pseudomonas aeruginosa was “moderate to high”. The “antibacterial effect on E. coli” value with E. coli is recorded as “moderate to high”.

Regarding polymeric silver imidazolate, the Appearance index in [1] (pH 5.5, 0.01% H2O2 added) is listed as 3; in [1] (pH 5.5, no H2O2 added), 3.4; in data set [1] (pH 7, no H2O2 added), 4.2; in data set [1] (pH 8.5, no H2O2 added) it was 3.2. Besides, the Antibacterial index is recorded as 2.7 in the data set on seven bacteria (pH 5.5, 0.01% H2O2 added); 0.8 with seven bacteria (pH 5.5, no H2O2 added); 3.2 in the data set on seven bacteria (pH 7, no H2O2 added); 2.8 in the data set with seven bacteria (pH 8.5, no H2O2 added). For the same compound, the antibacterial effect result in the data set on seven bacteria is listed as “moderate to excellent”.

Source of the values: patent US9028858B2 (Coloplast A/S, priority 2003, dated 2015).
